The data set is described as follows: Water absorption (hygroscopicity) of the solid upon storage. In kind it is physicochemical. On the procedure: Tri-μ-oxobis[(1,4,7-trimethyl-1,4,7-triazacyclononane)manganese(IV)]dichloride is prepared analogously to comparative example 1 and isolated in pure form as a red-brown powder. 4.7 g (8 mmol) thereof are dissolved in 50 ml of water and admixed with 3.1 g (16 mmol) of toluene-4-sulfonic acid sodium salt (Merck). After-stirring is carried out for 1 hour at room temperature, followed by evaporation to dryness on a rotary evaporator.
Analogously to comparative example 1, an aqueous solution of 0.2 mol of tri-μ-oxobis[(1,4,7-trimethyl-1,4,7-triazacyclononane)manganese(IV)]dichloride in water is prepared and freed from manganese oxides/hydroxides. The salts contained as a result of the reaction (sodium chloride) remain in the solution. At 25° C., 0.4 mol (77.6 g) of solid toluene-4-sulfonic acid sodium salt (Merck) is added and the mixture is after-stirred for 30 minutes. The clear dark red solution is then evaporated to dryness. Drying in a vacuum drying cabinet gives a crystalline red-violet solid in 92.7% yield, a mixture of tri-μ-oxobis[(1,4,7-trimethyl-1,4,7-triaza-cyclononane)manganese(IV)]dichloride, sodium toluenesulfonate and sodium chloride.
The procedure is in accordance with example 2 but adding sodium cumenesulfonate instead of the sodium toluene-4-sulfonate (equimolar exchange of sodium toluene-4-sulfonate for sodium cumenesulfonate). Evaporation at 50° C. gives a red-brown solid which, after 5 days, absorbs 7.1% by weight of water and in so doing becomes lumpy.
4.4 g (7.5 mmol) of isolated tri-μ-oxobis[(1,4,7-trimethyl-1,4,7-triazacyclo-nonane)manganese(IV)]dichloride according to comparative example 1 are dissolved in 50 ml of water, and 4.3 g (15 mmol) of sodium dodecylsulfate are added. The mixture is after-stirred for 1 hour at room temperature and then evaporated to dryness on a rotary evaporator. This gives 8.7 g of crystalline red solid which, after storage for 5 days at room temperature, absorbs 8.7% by weight of water and in so doing becomes lumpy.

For the compound `CN1CCN(C)CCN(C)CC1.CN1CCN(C)CCN(C)CC1.[Cl-].[Cl-].[O]1[Mn+]2[O][Mn+]1[O]2` [compound 1, tri-μ-oxobis[(1,4,7-trimethyl-1,4,7-triazacyclononane)-manganese(IV)]dichloride], the “hygroscopicity of isolated powder” value (as isolated, red-brown powder) is on record as “strongly hygroscopic”. For the same compound, under “open dish, room temperature, 24 hours”, the “physical state after storage” value was “becomes liquid”. Moreover, the “water absorbed upon storage” value (open dish, room temperature, over the course of 24 hours) is over 17 % by weight.
